# According to patent US20130108573A1, “Bile Acid Recycling Inhibitors for Treatment of Hypercholemia and Cholestatic Liver Disease” (Lumena Pharmaceuticals, Inc., priority 2011, published 2013):
# Marks after values point to notes of the source that are not given here.
# Tests used:
# serum bile acids = test: Human study of LUM001 lowering fasting and post-prandial peak serum bile acids in children and adolescents; format: in vivo; conditions: for Fasting serum bile acid / Morning Post-prandial peak: after eight days of dosing
# Method: LUM001 has been administered to forty patients under the age of 18 years old. […] The drug was administered once-a-day (QD) in the morning for fourteen days. […] These doses are similar to those using to treat patients with cholestatic diseases.
# The efficacy of LUM001 was determined by measuring total serum bile acids after eight days of dosing in children and adolescents under the age of eighteen. Thirty minutes before the next drug administration, at approximately 8 am in the morning, serum bile acid levels were measured. The child had refrained from food for 12 hours prior to this sample thus providing a fasted level of serum bile acid. After breakfast, serum bile acids were measured for up to the next 4 hours (8 am to noon) and the peak serum bile acid concentration noted.
# Dog Serum Bile Acids [1] = test: Duration of action of LUM001 on dog serum bile acids, Method 1: two meals for extended SBA elevation; format: in vivo, beagle dogs; conditions: for Serum Bile Acid, Mean: dogs n = 6, full meal at 0 hr, dosed at 1 hr, one-half meal at 4 hr
# Method: (§1) LUM001 was dissolved in water at concentrations that required the administration of 0.2 ml/kg of solution. Solutions were placed into gelatin capsules, Torpac Inc., size 13 Batch 594, East Hanover N.J., and administered orally.
# (§2) Male beagle dogs were obtained from Covance Research Products, Cumberland Va. or Marshall Farms USA, Inc., North Rose N.Y. A total of 20 dogs, 1 to 5 years old, 6.8 to 15.6 kg body weight, were used in these experiments. The dogs were conditioned to a 12 hour light/dark cycle and maintained on a feeding restriction of 1 hour per day access to food (Richman Standard Certified Canine Diet #5007, PMI Nutrition, Inc., St Louis Mo.) from 7 to 8 AM. They were trained to eat a special meal promptly within 20 minutes when presented (1 can. 397 g, Evanger's 100% Beef for Dogs, Evanger's Dog and Cat Food Co., Inc., Wheeling Ill., mixed with 50 g of sharp cheddar cheese.).
# (§3) SBA was measured by an enzymatic assay. SBA values are expressed as μg of total bile acids/ml of serum.
# (§4) In dogs a single experimental meal produces a postprandial rise in SBA that is elevated to a peak at 1 hour after feeding and constant for an additional 3 hours. Previous experiments (2) indicate that LUM001 remains active for more than 4.5 hours. To measure the duration of action of an ASBT inhibitor using postprandial SBA levels requires that in the control situation the SBA levels remain elevated and constant for the entire period of compound action, or that the compound be administered long before the postprandial rise occurs, and remain active in the empty digestive system for long periods before feeding. Accordingly, two alternative methods were used to provide a window of constant SBA elevation that could be used to measure the duration of action of ASBT inhibitors.
# LUM001 was administered at 0.05 and 0.2 mg/kg, p.o. to 6 dogs 1 hr after feeding them a meal. At 4 hours after the meal was offered, a second meal of ½ the size of the first meal was offered. It too was consumed as promptly and thoroughly as the first meal, and provided an extended, constant SBA plateau. Blood samples for SBA measurement were taken at 0, 1, 1.5, 2, 4, 4.5, 5, 5.5, 6, 6.5, 7, 7.5 and 8 hours from the time of offering the first meal. Mean SBA levels were compared to the mean SBA level at 1 hour, each dog serving as its own control.
# Dog Serum Bile Acids [2] = test: Duration of action of LUM001 on dog serum bile acids, Method 2: one meal, extended interval between dosing and feeding; format: in vivo, beagle dogs; conditions: for Serum Bile Acid, Mean: dogs n = 6, 0.2 mg/kg p.o., dosing time 0 hr, feeding time 2 hr
# Method: as §1, §2, §3, §4
# Alternatively, 6 dogs were dosed with water or LUM001, at 0.05 mg/kg, p.o. at 1.5 hours prior to being fed, or 0.05, or 0.2 mg/kg, at 2 hours prior to feeding. This moved the elevated SBA plateau out in time from the dose point. Blood samples for SBA measurement were taken immediately before dosing (0 or 0.5 hr), at feeding (2 hr), 2.5, 3, 4 and 5 hours after feeding. This allowed detection of activity out to 5.5 and 6 hours after dosing without feeding the dogs a second time. Mean SBA levels were compared to the corresponding mean SBA levels in water treated controls.
# [3] = patient 401, drug dose 2.5 mg QD
smiles,measurement,setting,value
CCCCC1(CCCC)CS(=O)(=O)c2ccc(N(C)C)cc2[C@@H](c2ccc(OCc3ccc(C[N+]45CCN(CC4)CC5)cc3)cc2)[C@H]1O [LUM001],Decrease of average fasting serum bile acid level vs placebo patients,serum bile acids; LUM001 1-5 mg QD,24%
same,Decrease of average post-prandial peak serum bile acid level vs placebo patients,serum bile acids; LUM001 1-5 mg QD,23%
same,Average fasting serum bile acid level of LUM001 treated patients,"serum bile acids; LUM001 1-5 mg QD, placebo patients 8.6 μmol/L",6.5 µmol/L
same,Average post-prandial peak serum bile acid level of LUM001 treated patients,"serum bile acids; LUM001 1-5 mg QD, placebo patients 11.9 μmol/L",9.2 µmol/L
same,Fasting serum bile acid,"serum bile acids; patient 304, drug dose 1 mg QD",5.6 µmol/L
same,Morning Post-prandial peak,"serum bile acids; patient 304, drug dose 1 mg QD",8.4 µmol/L
same,Fasting serum bile acid,"serum bile acids; patient 308, drug dose 1 mg QD",6.8 µmol/L
same,Morning Post-prandial peak,"serum bile acids; patient 308, drug dose 1 mg QD",9.3 µmol/L
same,Fasting serum bile acid,"serum bile acids; patient 309, drug dose 1 mg QD",6.9 µmol/L
same,Morning Post-prandial peak,"serum bile acids; patient 309, drug dose 1 mg QD",10.0 µmol/L
same,Fasting serum bile acid,serum bile acids; [3],6.0 µmol/L
same,Morning Post-prandial peak,serum bile acids; [3],6.8 µmol/L
same,Fasting serum bile acid,"serum bile acids; patient 510, drug dose 5 mg QD",7.4 µmol/L
same,Morning Post-prandial peak,"serum bile acids; patient 510, drug dose 5 mg QD",11.3 µmol/L
same,"Serum Bile Acid, Mean","Dog Serum Bile Acids [1]; 0.05 mg/kg p.o., time 0 hr",1.4 µg/mL
same,"Serum Bile Acid, Mean","Dog Serum Bile Acids [1]; 0.05 mg/kg p.o., time 1 hr",9.2 µg/mL
same,"Serum Bile Acid, Mean","Dog Serum Bile Acids [1]; 0.05 mg/kg p.o., time 1.5 hr",9.6 µg/mL
same,"Serum Bile Acid, Mean","Dog Serum Bile Acids [1]; 0.05 mg/kg p.o., time 2 hr",6.7 µg/mL
same,"Serum Bile Acid, Mean","Dog Serum Bile Acids [1]; 0.05 mg/kg p.o., time 4 hr",5.1* μg/ml
same,"Serum Bile Acid, Mean","Dog Serum Bile Acids [1]; 0.05 mg/kg p.o., time 4.5 hr",6.4 µg/mL
same,"Serum Bile Acid, Mean","Dog Serum Bile Acids [1]; 0.05 mg/kg p.o., time 5 hr",7.0 µg/mL
same,"Serum Bile Acid, Mean","Dog Serum Bile Acids [1]; 0.05 mg/kg p.o., time 6 hr",7.0 µg/mL
same,"Serum Bile Acid, Mean","Dog Serum Bile Acids [1]; 0.05 mg/kg p.o., time 7 hr",7.4 µg/mL
same,"Serum Bile Acid, Mean","Dog Serum Bile Acids [1]; 0.05 mg/kg p.o., time 8 hr",6.5 µg/mL
same,"Serum Bile Acid, Mean","Dog Serum Bile Acids [1]; 0.2 mg/kg p.o., time 0 hr",1.3 µg/mL
same,"Serum Bile Acid, Mean","Dog Serum Bile Acids [1]; 0.2 mg/kg p.o., time 1 hr",11.1 µg/mL
same,"Serum Bile Acid, Mean","Dog Serum Bile Acids [1]; 0.2 mg/kg p.o., time 1.5 hr",9.1 µg/mL
same,"Serum Bile Acid, Mean","Dog Serum Bile Acids [1]; 0.2 mg/kg p.o., time 2 hr",3.8* μg/ml
same,"Serum Bile Acid, Mean","Dog Serum Bile Acids [1]; 0.2 mg/kg p.o., time 4 hr",2.5* μg/ml
same,"Serum Bile Acid, Mean","Dog Serum Bile Acids [1]; 0.2 mg/kg p.o., time 4.5 hr",3.3* μg/ml
same,"Serum Bile Acid, Mean","Dog Serum Bile Acids [1]; 0.2 mg/kg p.o., time 5 hr",3.1* μg/ml
same,"Serum Bile Acid, Mean","Dog Serum Bile Acids [1]; 0.2 mg/kg p.o., time 6 hr",3.6* μg/ml
same,"Serum Bile Acid, Mean","Dog Serum Bile Acids [1]; 0.2 mg/kg p.o., time 7 hr",3.9* μg/ml
same,"Serum Bile Acid, Mean","Dog Serum Bile Acids [1]; 0.2 mg/kg p.o., time 8 hr",5.8* μg/ml
same,Time after dosing beyond which the significant SBA decrease was not sustained,"Dog Serum Bile Acids [1]; dogs, 0.05 mg/kg orally 1 hour after feeding",≤ 3 h
same,Time serum bile acid levels remained significantly lowered,"Dog Serum Bile Acids [1]; dogs, 0.2 mg/kg orally 1 hour after feeding",at least 6 hours
same,"Serum Bile Acid, Mean",Dog Serum Bile Acids [2]; time 0 hr,1.3 µg/mL
same,"Serum Bile Acid, Mean",Dog Serum Bile Acids [2]; time 2 hr,1.7 µg/mL
same,"Serum Bile Acid, Mean",Dog Serum Bile Acids [2]; time 5 hr,7.9* μg/ml
same,Time after feeding for which a significant SBA effect was sustained,"Dog Serum Bile Acids [2]; dogs, 0.2 mg/kg administered 2 hours prior to feeding",2 to 3 h
